The text below walks through data of the OPERA property sets (Mansouri et al. 2018).

One may read the solubility as the concentration that dissolves in the medium under given conditions.

In brackets after ≈: the same amount, converted by molar mass.

For the compound `CC(=O)OC(C)CC(C)C` (stereo not drawn), the solubility (20 °C) was 9.01 mM (≈ 1300 µg/mL).

As for `C=C(C)C(=O)O`, the solubility (20 °C) was found to be 1030 mM (≈ 89000 µg/mL). Against the preceding compound, the solubility is about 110-fold higher.

Under “25 °C”, `CCOCC` displayed a solubility of 815 mM (≈ 60400 µg/mL).

With `CC(C)CCOCCC(C)C`, under “25 °C”, the solubility came out at 1.26 mM (≈ 200 µg/mL).

Turning to `CCCCCCCCC`, the solubility (25 °C) turned out to be 0.00172 mM (≈ 0.22 µg/mL).

With `CCC[N+](=O)[O-]`, the solubility (25 °C) is 168 mM (≈ 15000 µg/mL).

As to `CCCCC(CC)CCl` (stereo not drawn), the solubility (20 °C) came out at 0.673 mM (≈ 100 µg/mL).

In the case of `CCCCCl`, the solubility (25 °C) came to 11.9 mM (≈ 1100 µg/mL).

`CC(=O)OCC(COC(C)=O)OC(C)=O` registered a solubility (25 °C) of 266 mM (≈ 58000 µg/mL). This solubility lies about 22-fold higher than the previous one.

In turn, `CCCCS` registered a solubility (20 °C) of 6.62 mM (≈ 597 µg/mL).

For the compound `COC(=O)c1ccccc1`, the solubility (20 °C) is 15.4 mM (≈ 2100 µg/mL).

Turning to `CC[Si](CC)(CC)CC`, the solubility (25 °C) turned out to be 0.00225 mM (≈ 0.325 µg/mL).

For `CCCOCCC`, the solubility (25 °C) was 48 mM (≈ 4900 µg/mL). This solubility is about 21000-fold higher than that of the compound before.

As to `CCCCCOC(C)=O`, the solubility (20 °C) worked out at 13.2 mM (≈ 1710 µg/mL).

As for `CCCCOC(=O)/C=C\C(=O)OCCCC`, the solubility (25 °C) came out at 2.19 mM (≈ 500 µg/mL).

Compound `C[Si](C)(C)C` yielded a solubility (25 °C) of 0.222 mM (≈ 19.6 µg/mL).

`C=COCCCC` displayed a solubility (20 °C) of 30 mM (≈ 3000 µg/mL).

The compound `CC1CCCO1` (stereo not drawn) displayed a solubility (25 °C) of 1810 mM (≈ 156000 µg/mL).

`CCOC(=O)/C=C\C(=O)OCC` came in with a solubility (30 °C) of 81.3 mM (≈ 14000 µg/mL). In other words, the millimolar range.

`FC(F)(Cl)C(F)(F)Cl`: the solubility (25 °C) stood at 0.761 mM (≈ 130 µg/mL).

`Cc1ccc(Cl)c(Cl)c1` came in with a solubility (30 °C) of 0.161 mM (≈ 26 µg/mL).

The compound `CCCCC` displayed a solubility (25 °C) of 0.527 mM (≈ 38 µg/mL).

For `CCCCOCCCC`, the solubility (25 °C) came out at 2.3 mM (≈ 300 µg/mL).

`CCCCCCCCC(=O)O` had a solubility (20 °C) of 1.79 mM (≈ 284 µg/mL). In other words, the millimolar range.

Regarding `CCCC(C)C`, the solubility (25 °C) is 0.172 mM (≈ 14.8 µg/mL).

In the case of `COC(=O)/C=C\C(=O)OC`, the solubility (25 °C) came to 555 mM (≈ 80000 µg/mL).

Take `CCCC(=O)OCC`: the solubility (20 °C) is 47.3 mM (≈ 5500 µg/mL).

Consider `C=CC(=O)OC`, for which the solubility (25 °C) is 574 mM (≈ 49400 µg/mL). That is a millimolar value.

For the compound `FC(F)(F)Cl`, the solubility (25 °C) turned out to be 0.862 mM (≈ 90 µg/mL).

In turn, `FC(Cl)(Cl)C(F)(Cl)Cl` yielded a solubility (25 °C) of 0.617 mM (≈ 126 µg/mL).

`CCCCOC(=O)CCCCCCCCC(=O)OCCCC` displayed a solubility (20 °C) of 0.127 mM (≈ 40 µg/mL).

Compound `CCCCCC(C)=O` displayed a solubility (25 °C) of 37.7 mM (≈ 4300 µg/mL).

In turn, `CCC(C)C` showed a solubility (25 °C) of 0.676 mM (≈ 48.8 µg/mL).

Turning to `CC(C)CC(C)O` (stereo not drawn), the solubility (25 °C) is 161 mM (≈ 16400 µg/mL).

`CCCCC(CC)CN` (stereo not drawn) registered a solubility (20 °C) of 19.3 mM (≈ 2500 µg/mL).

The compound `N#Cc1ccccc1` came in with a solubility (25 °C) of 19.4 mM (≈ 2000 µg/mL).

The compound `C=COC(C)=O` yielded a solubility (20 °C) of 232 mM (≈ 20000 µg/mL). This lies in the millimolar range.

Under “20 °C”, `CCOC(=O)CC(C)C` yielded a solubility of 18.5 mM (≈ 2410 µg/mL).
